Source: patent publication US6841680B2, “N-type calcium channel antagonists for the treatment of pain” (AstraZeneca AB, priority 2000, dated 2005)
pIC50: −log10 of the molar value.

Tests used:
[1] = molecular target: N-type calcium channel (Homo sapiens, UniProt Q00975); assay: N-Channel FLIPR assay (IMR32 cells, 80 mM K+ evoked calcium flux); format: cell-based; conditions: unit inferred
[2] = tested on: NK-1 receptor; conditions: phenylbenzoquinone-induced writhing and formalin test; Garret et al; cited from earlier work

Sequence of N-type calcium channel (Q00975 whole entry): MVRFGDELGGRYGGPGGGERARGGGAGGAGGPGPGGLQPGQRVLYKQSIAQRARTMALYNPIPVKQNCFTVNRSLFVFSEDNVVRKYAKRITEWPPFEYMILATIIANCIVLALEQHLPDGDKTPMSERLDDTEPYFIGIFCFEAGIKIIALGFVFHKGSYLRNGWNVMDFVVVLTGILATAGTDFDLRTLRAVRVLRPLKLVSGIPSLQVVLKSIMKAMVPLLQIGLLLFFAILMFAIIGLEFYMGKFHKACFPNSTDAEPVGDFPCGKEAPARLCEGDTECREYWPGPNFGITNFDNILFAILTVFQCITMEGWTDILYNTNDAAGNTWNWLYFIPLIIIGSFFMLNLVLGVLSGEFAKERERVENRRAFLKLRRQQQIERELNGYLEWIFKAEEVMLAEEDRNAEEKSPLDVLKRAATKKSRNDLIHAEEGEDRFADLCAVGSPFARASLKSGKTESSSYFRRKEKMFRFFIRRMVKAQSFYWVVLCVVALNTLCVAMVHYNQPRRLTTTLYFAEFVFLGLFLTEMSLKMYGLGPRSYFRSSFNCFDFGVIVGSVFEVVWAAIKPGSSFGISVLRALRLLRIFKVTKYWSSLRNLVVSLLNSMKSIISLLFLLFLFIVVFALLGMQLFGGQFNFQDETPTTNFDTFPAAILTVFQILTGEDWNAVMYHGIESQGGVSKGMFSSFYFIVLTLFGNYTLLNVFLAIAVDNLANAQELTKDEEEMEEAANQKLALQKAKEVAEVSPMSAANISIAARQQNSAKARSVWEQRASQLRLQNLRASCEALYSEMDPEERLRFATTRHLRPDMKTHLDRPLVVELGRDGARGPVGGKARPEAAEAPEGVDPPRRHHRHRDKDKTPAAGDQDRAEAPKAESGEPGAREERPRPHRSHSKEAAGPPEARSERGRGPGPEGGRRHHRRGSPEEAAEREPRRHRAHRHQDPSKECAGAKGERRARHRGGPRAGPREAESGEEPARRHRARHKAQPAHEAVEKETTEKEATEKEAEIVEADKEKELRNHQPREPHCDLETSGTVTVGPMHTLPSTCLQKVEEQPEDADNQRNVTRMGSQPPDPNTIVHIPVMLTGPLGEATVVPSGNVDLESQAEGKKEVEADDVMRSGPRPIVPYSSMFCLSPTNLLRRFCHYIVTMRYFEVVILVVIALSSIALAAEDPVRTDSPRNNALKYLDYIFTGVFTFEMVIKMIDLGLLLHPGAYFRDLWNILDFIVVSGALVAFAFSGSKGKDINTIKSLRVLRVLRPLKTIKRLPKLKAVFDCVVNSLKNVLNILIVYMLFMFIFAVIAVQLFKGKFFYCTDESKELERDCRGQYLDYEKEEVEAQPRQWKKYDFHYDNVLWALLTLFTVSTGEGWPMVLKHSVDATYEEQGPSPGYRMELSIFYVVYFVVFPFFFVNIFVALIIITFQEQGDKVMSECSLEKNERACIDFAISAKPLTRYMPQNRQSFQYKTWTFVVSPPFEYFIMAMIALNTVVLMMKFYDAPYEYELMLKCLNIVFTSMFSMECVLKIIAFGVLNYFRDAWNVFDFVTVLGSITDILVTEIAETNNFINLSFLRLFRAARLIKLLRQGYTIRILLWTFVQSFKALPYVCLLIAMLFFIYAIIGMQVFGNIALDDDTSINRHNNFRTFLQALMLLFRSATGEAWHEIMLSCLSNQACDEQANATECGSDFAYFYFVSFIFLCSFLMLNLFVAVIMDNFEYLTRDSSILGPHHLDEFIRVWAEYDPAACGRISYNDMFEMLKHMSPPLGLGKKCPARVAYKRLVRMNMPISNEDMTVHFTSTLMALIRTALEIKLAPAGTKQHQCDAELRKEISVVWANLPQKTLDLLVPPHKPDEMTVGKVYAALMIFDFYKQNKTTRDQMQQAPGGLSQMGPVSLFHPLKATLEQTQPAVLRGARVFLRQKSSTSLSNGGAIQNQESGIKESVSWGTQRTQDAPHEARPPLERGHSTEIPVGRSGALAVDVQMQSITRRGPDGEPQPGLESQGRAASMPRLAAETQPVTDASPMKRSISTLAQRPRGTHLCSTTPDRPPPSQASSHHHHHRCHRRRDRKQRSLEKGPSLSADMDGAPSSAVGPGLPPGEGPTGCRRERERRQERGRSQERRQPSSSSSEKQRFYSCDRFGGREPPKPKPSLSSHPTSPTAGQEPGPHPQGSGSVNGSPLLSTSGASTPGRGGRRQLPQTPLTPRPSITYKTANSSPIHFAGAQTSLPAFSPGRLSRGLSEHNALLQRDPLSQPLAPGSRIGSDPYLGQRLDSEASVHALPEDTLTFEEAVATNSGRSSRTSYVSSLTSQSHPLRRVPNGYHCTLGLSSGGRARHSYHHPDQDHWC
Sequence of N-type calcium channel (P54289 25-1103 partner): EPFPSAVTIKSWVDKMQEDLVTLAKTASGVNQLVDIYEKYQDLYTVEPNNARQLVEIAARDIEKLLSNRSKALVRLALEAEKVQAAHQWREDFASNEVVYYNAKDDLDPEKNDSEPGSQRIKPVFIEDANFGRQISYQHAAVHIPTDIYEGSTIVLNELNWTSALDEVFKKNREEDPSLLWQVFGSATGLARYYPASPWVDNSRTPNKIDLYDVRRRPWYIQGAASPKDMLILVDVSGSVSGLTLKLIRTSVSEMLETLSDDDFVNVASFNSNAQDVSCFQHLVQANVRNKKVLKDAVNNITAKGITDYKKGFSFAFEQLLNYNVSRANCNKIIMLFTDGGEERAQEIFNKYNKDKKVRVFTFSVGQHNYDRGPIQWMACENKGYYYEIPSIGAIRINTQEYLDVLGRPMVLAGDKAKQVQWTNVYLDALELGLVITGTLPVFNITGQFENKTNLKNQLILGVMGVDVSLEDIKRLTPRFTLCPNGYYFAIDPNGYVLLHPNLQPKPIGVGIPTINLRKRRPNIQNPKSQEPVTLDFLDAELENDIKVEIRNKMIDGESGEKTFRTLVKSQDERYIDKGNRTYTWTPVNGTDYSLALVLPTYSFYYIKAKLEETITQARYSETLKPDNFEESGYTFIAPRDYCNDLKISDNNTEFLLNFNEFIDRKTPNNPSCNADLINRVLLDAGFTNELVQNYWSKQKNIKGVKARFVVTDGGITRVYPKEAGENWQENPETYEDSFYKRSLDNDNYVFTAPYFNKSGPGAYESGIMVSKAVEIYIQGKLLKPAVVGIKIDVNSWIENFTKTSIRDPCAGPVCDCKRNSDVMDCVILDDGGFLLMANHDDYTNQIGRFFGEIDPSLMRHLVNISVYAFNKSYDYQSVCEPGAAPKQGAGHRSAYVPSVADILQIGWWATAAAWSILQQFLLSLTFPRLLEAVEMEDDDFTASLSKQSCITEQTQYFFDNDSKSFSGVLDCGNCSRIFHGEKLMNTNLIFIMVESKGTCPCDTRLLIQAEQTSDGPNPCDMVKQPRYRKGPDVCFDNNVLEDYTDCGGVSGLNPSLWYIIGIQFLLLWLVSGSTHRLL
Sequence of N-type calcium channel (P54284 whole entry partner): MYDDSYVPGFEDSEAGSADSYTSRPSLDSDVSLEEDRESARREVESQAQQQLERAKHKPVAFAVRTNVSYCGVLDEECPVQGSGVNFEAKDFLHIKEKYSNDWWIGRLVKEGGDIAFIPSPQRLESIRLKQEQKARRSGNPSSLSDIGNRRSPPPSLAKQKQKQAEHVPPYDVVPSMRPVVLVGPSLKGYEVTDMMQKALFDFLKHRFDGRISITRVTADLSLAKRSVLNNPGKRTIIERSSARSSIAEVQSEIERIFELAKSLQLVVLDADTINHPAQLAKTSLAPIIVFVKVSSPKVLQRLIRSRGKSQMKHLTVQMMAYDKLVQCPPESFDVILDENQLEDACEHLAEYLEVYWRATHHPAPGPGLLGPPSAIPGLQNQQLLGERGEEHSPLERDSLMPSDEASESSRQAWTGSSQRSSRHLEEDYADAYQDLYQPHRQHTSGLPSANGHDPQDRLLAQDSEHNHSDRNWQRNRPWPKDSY

Row | SMILES | pIC50 [1] | analgesia [2]
1 | COc1ccccc1CC(=N)N1C[C@@H]2C(=O)CCC(c3ccccc3)(c3ccccc3)[C@@H]2C1 [RP 67,580] |  | produced analgesia with potency comparable to that of morphine
2 | CNc1cc(-c2cccc(F)c2)nc2ccc(-c3ccccc3C=O)cc12 [Example 15, 2-[2-(3-fluorophenyl)-4-(methylamino)-6-quinolinyl]-benzaldehyde] | 5.27 | 
3 | CNc1cc(-c2cccc(F)c2)nc2ccc(-c3ccccc3)cc12 [Example 13, 2-(3-fluorophenyl)-6-phenyl-4-methylaminoquinoline] | 5.07 | 

Further lines, with some results ahead:

Row | pIC50 [1] | SMILES | analgesia [2]
4 | 4.98 | CNc1cc(-c2cccc(F)c2)nc2ccc(-c3ccccc3Cl)cc12 [Example 12, 2-(3-fluorophenyl)-6-(2-chlorophenyl)-4-methylaminoquinoline] | 
5 | 5.24 | CNc1cc(-c2cccc(F)c2)nc2ccc(-c3ccccc3OC)cc12 [Example 16, 2-(3-fluorophenyl)-6-(2-methoxyphenyl)-4-methylaminoquinoline] | 
6 | 5.05 | CNc1cc(-c2cccc(F)c2)nc2ccc(-c3ccccc3C)cc12 [Example 14, 2-(3-fluorophenyl)-6-(2-methylphenyl)-4-methylaminoquinoline] | 
